Drawing on patent US7521418B2, “Use of a polyene macrolide antifungal agent in combination with a glycopeptide antibacterial agent” (Theravance, Inc., priority 2003, dated 2009), this text covers FICI for two compounds.

The test concerns C. parapsilosis ATCC 22019. As to the kind of experiment: Checkerboard MIC assay, FICI. It is filed as cell-based, Candida parapsilosis. The conditions noted are these: combination with Compound 1; C. parapsilosis ATCC 22019. The source says: The following assay was used to determine the minimum inhibitory concentration (MIC) and fractional inhibitory concentration index (FICI) for combinations of an antifungal agent and a glycopeptide antibacterial agent. This assay and methods for calculating FICI are well known in the art. See, for example, Eliopoulos, E. G. and R. Moellering, Jr. “Antimicrobial Combinations” in Antibiotics in Laboratory Medicine, edited by V. Lorian, 4th Ed., Williams & Wilkins, Baltimore, MD, pp. 330-396 (1996); […] et al., Antimicrobial Agents and Chemotherapy 47(4):1416-1418 (2003); or […] et al., Antimicrobial Agents and Chemotherapy 46(10):3323-3326 (2002). Procedures, protocols, supplies and equipment used in this assay follow the recommendations approved and published by the National Committee for Clinical Laboratory Standards (NCCLS), Wayne, Pa. as described in NCCLS 2003, “Reference Method for Broth Dilution Antimicrobial Susceptibility Tests for Bacteria that Grow Aerobically; Approved Standard” (NCCLS document M7-A6); NCCLS 2002, “Reference Method for Broth Dilution Antifungal Susceptibility Tests of Filamentous Fungi that Grow Aerobically; Approved Standard” (NCCLS document M38-A); and NCCLS 2002 “Reference Method for Broth Dilution Antifungal Susceptibility Tests of Yeast; Approved Standards-2nd Edition” (NCCLS document M27-A2). Using a checkerboard method, a 2-fold dilution 100× final concentration master plate was prepared using a 96-well U-shape microtiter plate and an appropriate solvent. In the “checkerboard” method, a microtiter plate is divided into “columns” in which each well in the column contains the same amount of an antifungal agent (Compound A) being diluted along the x-axis, and “rows” in which each well in the row contains the same amount of a glycopeptide antibacterial agent (Compound B) being diluted on the y-axis. Also included is a row (or column) for Compound A or B alone. The dilutions used in the checkerboard are exponential (by powers of two). The result is that each well in the microtiter plate contains a unique concentration of the two compounds being tested. […] After mixing, 100 μL of 2× drug combinations were distributed into 96-well microtiter plates. […] Compound A was not added to Column 12, so Column 12 contained only Compound B. Compound B was diluted from row A starting at 6,400 μg/mL down to row G (100 μg/mL). Wells in Row A contained a final concentration of 64 μg/mL of Compound B; Row B contained a final concentration of 32 μg/mL of Compound B; Row C contained a final concentration of 16 μg/mL of Compound B; etc. Compound B was not added to Row H, so Row H only contained Compound A. […] The MIC of the glycopeptide antibacterial agent determined from this experiment was used in FIC calculations. […] RPMI-1640 without sodium bicarbonate media (GIBCO-BRL, Carlsbad, Calif.), an enriched media formulated for mammalian cells, was used according to the NCCLS guidelines for yeast and filamentous fungi susceptibility testing. The medium was buffered with 0.165 M 3-[N-Morpholino]propanesulfonic acid (MOPS) supplemented with 20 g/L glucose and pH adjusted to 7.0 with hydrogen chloride. Sabouraud Dextrose Agar ([…] plates, and Potato Dextrose Agar (PDA) plates were purchased from Hardy Diagnostic (Santa Maria, Calif.). Yeast cultures were started from -80° C. frozen stock streaked on […] incubated at 35° C. under aerobic conditions for 24 h. The […] in the refrigerator for up to 2 weeks and used regularly as a starting culture. About 24 to 48 h before each assay was run, yeasts were streaked on SDA plates for isolated colonies. To prepare the inoculum, from one to four colonies were resuspended in 5 mL of saline, and vortexed for 15 sec. […] For most yeast and mold cultures, the optical density (OD) of the suspension was adjusted to 0.11 in saline to provide 0.4×10^6 CFU/mL. However, for Fusarium moniliforme and Pseudallescheria boydii the OD of the suspension was adjusted to OD=0.17 to provide 0.4×10^6 CFU/mL. […]

As to `C[C@@H]1[C@H](O)[C@@H](C)/C=C/C=C/C=C/C=C/C=C/C=C/C=C/[C@H](O[C@@H]2O[C@H](C)[C@@H](O)[C@H](N)[C@@H]2O)C[C@@H]2O[C@](O)(C[C@@H](O)C[C@@H](O)[C@H](O)CC[C@@H](O)C[C@@H](O)CC(=O)O[C@H]1C)C[C@H](O)[C@H]2C(=O)O` [Amphotericin B], the FICI is reported as 0.28.
The result for `C[C@@H]1[C@H](O)[C@@H](C)/C=C/C=C/CC/C=C/C=C/C=C/C=C/C(O[C@H]2O[C@H](C)[C@@H](O)[C@H](N)[C@@H]2O)CC2O[C@](O)(CC(O)C(O)CCC(O)CC(O)CC(O)CC(=O)O[C@H]1C)CC(O)C2C(=O)O` (some centres unmarked) [Nystatin] reads 0.31.
